Structures are written as SMILES.

The assay addresses recombinant DYRK1A kinase (Homo sapiens (Human), UniProt Q13627). Nature of the assay: DYRK1A kinase assay (Ser/Thr 18 peptide Z-lyte FRET assay). In kind it is biochemical. Conditions: DYRK1A kinase activity; 15 μM ATP, 1 h room temperature; method text calls the value IC50. Summed up:
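FRET Z-lyte read-out (coumarin/fluorescein ratio, % phosphorylation) after 1 h development; IC50 from non-linear curve fit. Reaction: 0.25 μg/mL recombinant human DYRK1A, Ser/Thr 18 peptide 4 μM, ATP 15 μM, compound in 11-point 1:3 series from 10 μM, 1 h, room temperature, duplicate wells.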
A word on the EC50: it is the concentration giving half of the maximal effect. Consider `COc1nc(NC2CCC(F)(F)CC2)nc2[nH]cc(-c3ccc4nnn(CC(F)F)c4c3)c12` [Compound 2198, N-(4,4-Difluorocyclohexyl)-5-(1-(2,2-difluoroethyl)-1H-benzo[d][1,2,3]triazol-6-yl)-4-methoxy-7H-pyrrolo[2,3-d]pyrimidin-2-amine], for which the EC50 stood at 170 nM.

With `FC(F)CO[C@H]1CC[C@@H](Nc2ncc3c(-c4ccc5nccn5n4)c[nH]c3n2)CC1` [Compound 2199, N-(cis-4-(2,2-Difluoroethoxy)cyclohexyl)-5-(imidazo[1,2-b]pyridazin-6-yl)-7H-pyrrolo[2,3-d]pyrimidin-2-amine], the EC50 is 2.2 nM.

`[2H]C([2H])([2H])O[C@H]1CC[C@@H](Nc2ncc3c(-c4ccn5nccc5c4)c[nH]c3n2)CC1` [Compound 2200, N-(cis-4-(Methoxy-d3)cyclohexyl)-5-(pyrazolo[1,5-a]pyridin-5-yl)-7H-pyrrolo[2,3-d]pyrimidin-2-amine]: the EC50 amounted to 2.6 nM.

Turning to `FC(F)CO[C@H]1CC[C@@H](Nc2ncc3c(-c4ccn5nccc5c4)c[nH]c3n2)CC1` [Compound 2201, N-(cis-4-(2,2-Difluoroethoxy)cyclohexyl)-5-(pyrazolo[1,5-a]pyridin-5-yl)-7H-pyrrolo[2,3-d]pyrimidin-2-amine], the EC50 was determined as 5 nM.

Turning to `OCCO[C@H]1CC[C@@H](Nc2ncc3c(-c4ccn5nccc5c4)c[nH]c3n2)CC1` [Compound 2202, 2-((cis-4-((5-(Pyrazolo[1,5-a]pyridin-5-yl)-7H-pyrrolo[2,3-d]pyrimidin-2-yl)amino)cyclohexyl)oxy)ethan-1-ol], the concentration giving a half-maximal response (EC50) was 3.9 nM.

For `COCCO[C@H]1CC[C@@H](Nc2ncc3c(-c4ccn5nccc5c4)c[nH]c3n2)CC1` [Compound 2203, N-(cis-4-(2-Methoxyethoxy)cyclohexyl)-5-(pyrazolo[1,5-a]pyridin-5-yl)-7H-pyrrolo[2,3-d]pyrimidin-2-amine], the EC50 was 3.4 nM.

As for `COc1nc(N[C@H](C)C(F)(F)F)nc2[nH]cc(-c3ccn4nccc4c3)c12` [Compound 2204, (R)-4-Methoxy-5-(pyrazolo[1,5-a]pyridin-5-yl)-N-(1,1,1-trifluoropropan-2-yl)-7H-pyrrolo[2,3-d]pyrimidin-2-amine], the EC50 came to 15.4 nM.

Consider `COC[C@@H](C)Nc1nc(OC)c2c(-c3ccn4nccc4c3)c[nH]c2n1` [Compound 2205, (R)-4-Methoxy-N-(1-methoxypropan-2-yl)-5-(pyrazolo[1,5-a]pyridin-5-yl)-7H-pyrrolo[2,3-d]pyrimidin-2-amine], for which the EC50 is 79.5 nM.

For the compound `COc1nc(NC2CCC(F)(F)CC2)nc2[nH]cc(-c3ccn4nccc4c3)c12` [Compound 2206, N-(4,4-Difluorocyclohexyl)-4-methoxy-5-(pyrazolo[1,5-a]pyridin-5-yl)-7H-pyrrolo[2,3-d]pyrimidin-2-amine], the EC50 came out at 3.2 nM.

Regarding `COc1nc(N[C@H]2CC[C@@H](O)CC2)nc2[nH]cc(-c3ccn4nccc4c3)c12` [Compound 2207, cis-4-((4-Methoxy-5-(pyrazolo[1,5-a]pyridin-5-yl)-7H-pyrrolo[2,3-d]pyrimidin-2-yl)amino)cyclohexan-1-ol], the EC50 came to 1.7 nM.

Take `COc1nc(N[C@H]2CC[C@@](C)(O)CC2)nc2[nH]cc(-c3ccn4nccc4c3)c12` [Compound 2208, cis-4-((4-Methoxy-5-(pyrazolo[1,5-a]pyridin-5-yl)-7H-pyrrolo[2,3-d]pyrimidin-2-yl)amino)-1-methylcyclohexan-1-ol]: the EC50 worked out at 4.3 nM.

`COc1nc(N[C@H]2CC[C@](C)(O)CC2)nc2[nH]cc(-c3ccn4nccc4c3)c12` [Compound 2209, trans-4-((4-Methoxy-5-(pyrazolo[1,5-a]pyridin-5-yl)-7H-pyrrolo[2,3-d]pyrimidin-2-yl)amino)-1-methylcyclohexan-1-ol]: the EC50 came to 1.6 nM.

With `[2H]C([2H])([2H])O[C@H]1CC[C@@H](Nc2nc(OC)c3c(-c4ccn5nccc5c4)c[nH]c3n2)CC1` [Compound 2210, 4-Methoxy-N-(cis-4-(methoxy-d3)cyclohexyl)-5-(pyrazolo[1,5-a]pyridin-5-yl)-7H-pyrrolo[2,3-d]pyrimidin-2-amine], the EC50 stood at 3.4 nM.

In the case of `COc1nc(N[C@H]2CC[C@@H](OC(F)F)CC2)nc2[nH]cc(-c3ccn4nccc4c3)c12` [Compound 2211, N-(cis-4-(Difluoromethoxy)cyclohexyl)-4-methoxy-5-(pyrazolo[1,5-a]pyridin-5-yl)-7H-pyrrolo[2,3-d]pyrimidin-2-amine], the EC50 is 126 nM.

As to `COc1nc(N[C@H]2CC[C@@H](OCC(F)F)CC2)nc2[nH]cc(-c3ccn4nccc4c3)c12` [Compound 2212, N-(cis-4-(2,2-Difluoroethoxy)cyclohexyl)-4-methoxy-5-(pyrazolo[1,5-a]pyridin-5-yl)-7H-pyrrolo[2,3-d]pyrimidin-2-amine], the EC50 stood at 6.6 nM.

Take `COc1nc(N[C@H]2CC[C@@H](OCCO)CC2)nc2[nH]cc(-c3ccn4nccc4c3)c12` [Compound 2213, 2-((cis-4-((4-Methoxy-5-(pyrazolo[1,5-a]pyridin-5-yl)-7H-pyrrolo[2,3-d]pyrimidin-2-yl)amino)cyclohexyl)oxy)ethan-1-ol]: the EC50 stood at 71.9 nM.

As to `COCCO[C@H]1CC[C@@H](Nc2nc(OC)c3c(-c4ccn5nccc5c4)c[nH]c3n2)CC1` [Compound 2214, 4-Methoxy-N-(cis-4-(2-methoxyethoxy)cyclohexyl)-5-(pyrazolo[1,5-a]pyridin-5-yl)-7H-pyrrolo[2,3-d]pyrimidin-2-amine], the EC50 amounted to 1.7 nM.

As to `COc1nc(NC2CCC3(CC2)OCCO3)nc2[nH]cc(-c3ccn4nccc4c3)c12` [Compound 2215, 4-Methoxy-5-(pyrazolo[1,5-a]pyridin-5-yl)-N-(1,4-dioxaspiro[4.5]decan-8-yl)-7H-pyrrolo[2,3-d]pyrimidin-2-amine], the EC50 worked out at 1.6 nM.

For the compound `COc1nc(NC2CCN(C)CC2)nc2[nH]cc(-c3ccn4nccc4c3)c12` [Compound 2216, 4-Methoxy-N-(1-methylpiperidin-4-yl)-5-(pyrazolo[1,5-a]pyridin-5-yl)-7H-pyrrolo[2,3-d]pyrimidin-2-amine], the EC50 came to 7.4 nM.

As for `COc1nc(NC2CCOCC2)nc2[nH]cc(-c3ccn4nccc4c3)c12` [Compound 2217, 4-Methoxy-5-(pyrazolo[1,5-a]pyridin-5-yl)-N-(tetrahydro-2H-pyran-4-yl)-7H-pyrrolo[2,3-d]pyrimidin-2-amine], the EC50 stood at 2.2 nM.

Turning to `CCOc1nc(N[C@H](C)C(F)(F)F)nc2[nH]cc(-c3ccn4nccc4c3)c12` [Compound 2218, (R)-4-Ethoxy-5-(pyrazolo[1,5-a]pyridin-5-yl)-N-(1,1,1-trifluoropropan-2-yl)-7H-pyrrolo[2,3-d]pyrimidin-2-amine], the EC50 turned out to be 12.9 nM.

With `CCOc1nc(N[C@H]2CC[C@@H](O)CC2)nc2[nH]cc(-c3ccn4nccc4c3)c12` [Compound 2219, cis-4-((4-Ethoxy-5-(pyrazolo[1,5-a]pyridin-5-yl)-7H-pyrrolo[2,3-d]pyrimidin-2-yl)amino)cyclohexan-1-ol], the EC50 is 3.5 nM.

For the compound `CC(C)Oc1nc(N[C@H]2CC[C@@](C)(O)CC2)nc2[nH]cc(-c3ccn4nccc4c3)c12` [Compound 2220, cis-4-((4-Isopropoxy-5-(pyrazolo[1,5-a]pyridin-5-yl)-7H-pyrrolo[2,3-d]pyrimidin-2-yl)amino)-1-methylcyclohexan-1-ol], the EC50 was determined as 66.1 nM.

For the compound `FC(F)CO[C@H]1CC[C@@H](Nc2ncc3c(-c4ccn5nccc5n4)c[nH]c3n2)CC1` [Compound 2222, N-(cis-4-(2,2-Difluoroethoxy)cyclohexyl)-5-(pyrazolo[1,5-a]pyrimidin-5-yl)-7H-pyrrolo[2,3-d]pyrimidin-2-amine], the EC50 was 5.8 nM.

Regarding `COc1nc(NC2CCOCC2)nc2[nH]cc(-c3ccn4nccc4n3)c12` [Compound 2224, 4-Methoxy-5-(pyrazolo[1,5-a]pyrimidin-5-yl)-N-(tetrahydro-2H-pyran-4-yl)-7H-pyrrolo[2,3-d]pyrimidin-2-amine], the EC50 came to 10.7 nM.

As to `COCCO[C@H]1CC[C@@H](Nc2ncc3c(-c4ccc5ncccc5c4)c[nH]c3n2)CC1` [Compound 2226, N-(cis-4-(2-Methoxyethoxy)cyclohexyl)-5-(quinolin-6-yl)-7H-pyrrolo[2,3-d]pyrimidin-2-amine], the EC50 is 6.2 nM.

Regarding `COc1nc(NC2CCC(F)(F)CC2)nc2[nH]cc(-c3ccc4ncccc4c3)c12` [Compound 2227, N-(4,4-Difluorocyclohexyl)-4-methoxy-5-(quinolin-6-yl)-7H-pyrrolo[2,3-d]pyrimidin-2-amine], the EC50 came to 175 nM.

On to `C[C@]1(O)CC[C@@H](Nc2ncc3c(-c4ccc5nccnc5c4)c[nH]c3n2)CC1` [Compound 2228, cis-1-Methyl-4-((5-(quinoxalin-6-yl)-7H-pyrrolo[2,3-d]pyrimidin-2-yl)amino)cyclohexan-1-ol], for which the EC50 was found to be 2.6 nM.

Regarding `OCCO[C@H]1CC[C@@H](Nc2ncc3c(-c4ccc5nccnc5c4)c[nH]c3n2)CC1` [Compound 2229, 2-((cis-4-((5-(Quinoxalin-6-yl)-7H-pyrrolo[2,3-d]pyrimidin-2-yl)amino)cyclohexyl)oxy)ethan-1-ol], the EC50 is 2.6 nM.

`COc1nc(NC2CCC(F)(F)CC2)nc2[nH]cc(-c3ccc4nccnc4c3)c12` [Compound 2230, N-(4,4-Difluorocyclohexyl)-4-methoxy-5-(quinoxalin-6-yl)-7H-pyrrolo[2,3-d]pyrimidin-2-amine]: the 50% effective concentration (EC50) came to 4.5 nM.

For `COc1nc(N[C@H]2CC[C@@](C)(O)CC2)nc2[nH]cc(-c3ccc4nccnc4c3)c12` [Compound 2231, cis-4-((4-Methoxy-5-(quinoxalin-6-yl)-7H-pyrrolo[2,3-d]pyrimidin-2-yl)amino)-1-methylcyclohexan-1-ol], the EC50 is 2.2 nM.

Turning to `CCOc1nc(N[C@H]2CC[C@@H](O)CC2)nc2[nH]cc(-c3ccc4nccnc4c3)c12` [Compound 2232, cis-4-((4-Ethoxy-5-(quinoxalin-6-yl)-7H-pyrrolo[2,3-d]pyrimidin-2-yl)amino)cyclohexan-1-ol], the EC50 worked out at 1.3 nM.

The values are drawn from patent publication US20250129104A1, “7H-PYRROLO[2,3-D]PYRIMIDINES AND PREPARATION AND USES THEREOF” (BioSplice Therapeutics, Inc., priority 2021, published 2025).
